Assay [1] has as its target T1, Neutrophil collagenase (Homo sapiens, UniProt P22894). Put plainly: Inhibition of human MMP-8 using Mca-Pro-Leu-Gly-Leu-Dpa-Ala-Arg-NH2 as substrate preincubated for 1 hr followed by susbstrate addition by fluorescent analysis.
In assay [2] the target is T2, Matrix metalloproteinase-14 (Homo sapiens, UniProt P50281). The assay can be described thus: Inhibition of human MMP-14 using Mca-Pro-Leu-Gly-Leu-Dpa-Ala-Arg-NH2 as substrate preincubated for 1 hr followed by susbstrate addition by fluorescent analysis.
The target of assay [3] is T3, 72 kDa type IV collagenase (Homo sapiens, UniProt P08253). The assay can be described thus: Inhibition of human MMP-2 using Mca-Pro-Leu-Gly-Leu-Dpa-Ala-Arg-NH2 as substrate preincubated for 1 hr followed by susbstrate addition by fluorescent analysis.
T3 sequence (P08253 whole entry): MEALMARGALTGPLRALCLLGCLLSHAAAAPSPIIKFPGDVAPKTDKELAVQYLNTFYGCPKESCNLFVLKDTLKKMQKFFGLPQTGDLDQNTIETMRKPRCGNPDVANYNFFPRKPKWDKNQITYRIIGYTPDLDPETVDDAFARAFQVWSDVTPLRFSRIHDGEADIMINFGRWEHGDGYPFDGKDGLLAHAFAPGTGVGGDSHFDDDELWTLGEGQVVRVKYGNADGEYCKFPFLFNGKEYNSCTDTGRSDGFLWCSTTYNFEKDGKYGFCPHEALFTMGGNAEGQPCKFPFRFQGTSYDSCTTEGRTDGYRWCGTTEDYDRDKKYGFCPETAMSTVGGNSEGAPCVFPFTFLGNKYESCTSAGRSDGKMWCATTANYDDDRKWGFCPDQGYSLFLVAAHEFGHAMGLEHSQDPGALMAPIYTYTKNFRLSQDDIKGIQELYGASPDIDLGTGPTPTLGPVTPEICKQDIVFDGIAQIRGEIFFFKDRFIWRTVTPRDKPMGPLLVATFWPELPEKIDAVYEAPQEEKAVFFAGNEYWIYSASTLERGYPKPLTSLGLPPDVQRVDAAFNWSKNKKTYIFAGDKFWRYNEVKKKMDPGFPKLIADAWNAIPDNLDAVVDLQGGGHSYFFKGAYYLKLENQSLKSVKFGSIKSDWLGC
Assay [4] addresses T4, Interstitial collagenase (Homo sapiens, UniProt P03956).
T4 sequence (P03956 whole entry): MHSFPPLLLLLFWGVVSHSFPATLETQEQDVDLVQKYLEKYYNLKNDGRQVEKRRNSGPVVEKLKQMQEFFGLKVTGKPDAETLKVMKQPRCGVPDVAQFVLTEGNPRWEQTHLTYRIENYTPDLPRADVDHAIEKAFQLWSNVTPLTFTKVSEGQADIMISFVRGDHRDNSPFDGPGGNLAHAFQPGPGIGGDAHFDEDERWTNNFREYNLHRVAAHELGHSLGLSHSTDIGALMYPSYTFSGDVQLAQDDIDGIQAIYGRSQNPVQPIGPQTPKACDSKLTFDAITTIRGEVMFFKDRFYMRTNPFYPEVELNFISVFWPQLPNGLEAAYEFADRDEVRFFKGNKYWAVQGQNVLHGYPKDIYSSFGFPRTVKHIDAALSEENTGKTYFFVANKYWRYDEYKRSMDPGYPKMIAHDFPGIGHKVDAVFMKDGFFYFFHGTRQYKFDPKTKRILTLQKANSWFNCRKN
Put plainly: Inhibition of human MMP-1 using Mca-Pro-Leu-Gly-Leu-Dpa-Ala-Arg-NH2 as substrate preincubated for 1 hr followed by susbstrate addition by fluorescent analysis.

Assay [5] has as its target T5, Macrophage metalloelastase (Homo sapiens, UniProt P39900). The assay can be described thus: Inhibition of recombinant human MMP-12 by ELISA.
For assay [6], the target named is T4, Interstitial collagenase. The assay can be described thus: Inhibition of MMP-1 (unknown origin) expressed in Escherichia coli BL21(DE3) and measured for 2 mins by enzymatic assay.
Assay [7] concerns the target T4, Interstitial collagenase. The assay can be described thus: Inhibition of recombinant human MMP-1 for 3 hrs using colorimetric substrate by ELISA. (In general: An ELISA detects its analyte on a solid surface through an enzyme-linked reagent.)
Assay [8] addresses T3, 72 kDa type IV collagenase. Put plainly: Inhibition of recombinant human MMP-2 for 3 hrs using colorimetric substrate by ELISA.
Assay [9] deals with T1, Neutrophil collagenase. The assay can be described thus: Inhibition of recombinant human MMP-8 for 3 hrs using colorimetric substrate by ELISA.
Assay [10] deals with T4, Interstitial collagenase. The assay can be described thus: Inhibition of human MMP-1 expressed in Escherichia coli BL21(DE3) using Mca-Pro-Leu-Gly-Leu-Dpa-Ala-Arg-NH2 as substrate preincubated for 30 mins followed by susbstrate addition by photon-counter spectrophotometer analysis.
The target in assay [11] is Matrix metalloproteinase-9 (Homo sapiens, UniProt P14780). Put plainly: Inhibition of human MMP-9 expressed in Escherichia coli BL21(DE3) using Mca-Pro-Leu-Gly-Leu-Dpa-Ala-Arg-NH2 as substrate preincubated for 30 mins followed by susbstrate addition by photon-counter spectrophotometer analysis.
Chain of Matrix metalloproteinase-9 (P14780 whole entry): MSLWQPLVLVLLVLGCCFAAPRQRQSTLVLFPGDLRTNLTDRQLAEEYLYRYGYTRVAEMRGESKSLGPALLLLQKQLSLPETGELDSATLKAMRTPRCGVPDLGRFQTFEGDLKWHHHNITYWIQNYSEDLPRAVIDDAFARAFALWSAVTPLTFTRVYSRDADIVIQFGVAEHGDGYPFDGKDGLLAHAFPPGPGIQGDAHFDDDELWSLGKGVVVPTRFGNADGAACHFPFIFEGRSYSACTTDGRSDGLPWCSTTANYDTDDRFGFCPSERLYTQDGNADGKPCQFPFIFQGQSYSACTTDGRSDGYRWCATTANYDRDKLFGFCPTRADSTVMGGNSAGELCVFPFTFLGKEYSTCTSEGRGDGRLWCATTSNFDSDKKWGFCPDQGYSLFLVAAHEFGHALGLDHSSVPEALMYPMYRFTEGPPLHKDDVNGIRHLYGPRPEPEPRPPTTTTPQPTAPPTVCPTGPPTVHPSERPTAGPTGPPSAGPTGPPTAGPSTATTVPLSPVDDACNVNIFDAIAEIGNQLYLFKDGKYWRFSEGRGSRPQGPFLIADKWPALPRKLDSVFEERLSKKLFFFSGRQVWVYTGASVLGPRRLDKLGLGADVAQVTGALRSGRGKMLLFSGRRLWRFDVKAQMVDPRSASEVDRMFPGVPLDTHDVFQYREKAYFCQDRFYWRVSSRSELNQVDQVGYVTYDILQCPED
Assay [12] deals with T2, Matrix metalloproteinase-14. The assay can be described thus: Inhibition of human MMP-14 expressed in Escherichia coli BL21(DE3) using Mca-Pro-Leu-Gly-Leu-Dpa-Ala-Arg-NH2 as substrate preincubated for 30 mins followed by susbstrate addition by photon-counter spectrophotometer analysis.
Assay [13] has as its target T1, Neutrophil collagenase. Put plainly: Inhibition of human MMP-8 expressed in Escherichia coli BL21(DE3) using Mca-Pro-Leu-Gly-Leu-Dpa-Ala-Arg-NH2 as substrate preincubated for 30 mins followed by susbstrate addition by photon-counter spectrophotometer analysis.
A further assay has as its target Collagenase 3 (Homo sapiens, UniProt P45452). The assay can be described thus: Inhibition of human MMP-13 expressed in Escherichia coli BL21(DE3) using Mca-Pro-Leu-Gly-Leu-Dpa-Ala-Arg-NH2 as substrate preincubated for 30 mins followed by susbstrate addition by photon-counter spectrophotometer analysis.
The next assay addresses T6, Matrilysin (Homo sapiens, UniProt P09237).
T6 sequence (P09237 whole entry): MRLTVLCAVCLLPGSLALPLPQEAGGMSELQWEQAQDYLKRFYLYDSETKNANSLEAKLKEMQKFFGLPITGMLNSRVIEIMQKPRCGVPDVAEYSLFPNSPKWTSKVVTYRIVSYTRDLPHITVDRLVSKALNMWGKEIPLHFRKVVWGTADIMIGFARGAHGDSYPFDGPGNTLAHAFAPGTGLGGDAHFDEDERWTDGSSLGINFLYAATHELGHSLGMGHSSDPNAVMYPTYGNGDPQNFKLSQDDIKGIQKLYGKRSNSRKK
Put plainly: Inhibition of human MMP-7 expressed in Escherichia coli BL21(DE3) using Mca-Pro-Leu-Gly-Leu-Dpa-Ala-Arg-NH2 as substrate preincubated for 30 mins followed by susbstrate addition by photon-counter spectrophotometer analysis.

The next assay addresses Stromelysin-2 (Homo sapiens, UniProt P09238). The assay can be described thus: Inhibition of human MMP-10 expressed in Escherichia coli BL21(DE3) using Mca-Pro-Leu-Gly-Leu-Dpa-Ala-Arg-NH2 as substrate preincubated for 30 mins followed by susbstrate addition by photon-counter spectrophotometer analysis.
Another assay addresses Stromelysin-1 (Homo sapiens, UniProt P08254). Put plainly: Inhibition of human MMP-3 expressed in Escherichia coli BL21(DE3) using Mca-Pro-Leu-Gly-Leu-Dpa-Ala-Arg-NH2 as substrate preincubated for 30 mins followed by susbstrate addition by photon-counter spectrophotometer analysis.
In assay [14] the target is T5, Macrophage metalloelastase. The assay can be described thus: Inhibition of human MMP-12 expressed in Escherichia coli BL21(DE3) using Mca-Pro-Leu-Gly-Leu-Dpa-Ala-Arg-NH2 as substrate preincubated for 30 mins followed by susbstrate addition by photon-counter spectrophotometer analysis.
Assay [15] concerns the target T3, 72 kDa type IV collagenase. The assay can be described thus: Inhibition of human MMP-2 expressed in Escherichia coli BL21(DE3) using Mca-Pro-Leu-Gly-Leu-Dpa-Ala-Arg-NH2 as substrate preincubated for 30 mins followed by susbstrate addition by photon-counter spectrophotometer analysis.

SMILES strings stand for the structures.

T1 sequence (P22894 whole entry): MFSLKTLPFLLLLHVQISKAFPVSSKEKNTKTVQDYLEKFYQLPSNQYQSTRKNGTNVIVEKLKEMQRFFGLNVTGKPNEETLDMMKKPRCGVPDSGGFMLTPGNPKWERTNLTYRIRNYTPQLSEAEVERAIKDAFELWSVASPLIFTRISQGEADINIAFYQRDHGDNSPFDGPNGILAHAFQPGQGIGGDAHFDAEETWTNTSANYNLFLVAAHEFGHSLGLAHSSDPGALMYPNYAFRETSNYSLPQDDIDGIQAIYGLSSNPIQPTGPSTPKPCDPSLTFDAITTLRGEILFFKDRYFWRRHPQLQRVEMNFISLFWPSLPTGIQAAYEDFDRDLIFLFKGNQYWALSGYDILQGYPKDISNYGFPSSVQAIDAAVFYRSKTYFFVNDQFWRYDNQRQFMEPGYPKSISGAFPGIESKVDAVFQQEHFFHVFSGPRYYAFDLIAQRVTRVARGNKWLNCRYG
T5 sequence (P39900 whole entry): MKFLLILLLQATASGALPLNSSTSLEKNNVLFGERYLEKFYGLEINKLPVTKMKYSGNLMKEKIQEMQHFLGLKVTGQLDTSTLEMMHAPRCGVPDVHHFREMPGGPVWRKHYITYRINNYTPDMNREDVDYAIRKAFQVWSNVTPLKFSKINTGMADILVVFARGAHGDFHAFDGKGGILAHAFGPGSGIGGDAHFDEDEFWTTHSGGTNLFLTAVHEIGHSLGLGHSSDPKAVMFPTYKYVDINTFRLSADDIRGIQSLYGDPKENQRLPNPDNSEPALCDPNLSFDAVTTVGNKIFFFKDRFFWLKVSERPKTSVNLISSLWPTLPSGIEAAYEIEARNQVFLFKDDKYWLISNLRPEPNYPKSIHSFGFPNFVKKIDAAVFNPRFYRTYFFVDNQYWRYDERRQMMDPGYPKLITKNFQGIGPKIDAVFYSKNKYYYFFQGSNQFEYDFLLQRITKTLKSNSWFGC
Chain of Stromelysin-2 (P09238 whole entry): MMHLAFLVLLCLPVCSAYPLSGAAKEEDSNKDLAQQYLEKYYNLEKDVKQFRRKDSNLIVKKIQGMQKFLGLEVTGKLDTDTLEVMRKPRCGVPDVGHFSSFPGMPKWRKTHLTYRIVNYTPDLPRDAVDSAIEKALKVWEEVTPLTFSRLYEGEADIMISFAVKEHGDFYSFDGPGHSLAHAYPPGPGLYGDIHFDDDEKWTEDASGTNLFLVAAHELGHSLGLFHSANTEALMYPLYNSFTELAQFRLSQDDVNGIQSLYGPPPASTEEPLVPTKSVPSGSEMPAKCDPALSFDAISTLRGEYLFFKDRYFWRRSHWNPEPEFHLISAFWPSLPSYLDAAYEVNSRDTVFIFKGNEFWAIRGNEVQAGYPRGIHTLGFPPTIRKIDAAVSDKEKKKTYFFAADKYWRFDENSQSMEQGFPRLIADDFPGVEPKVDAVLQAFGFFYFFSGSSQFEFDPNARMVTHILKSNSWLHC
Chain of Stromelysin-1 (P08254 whole entry): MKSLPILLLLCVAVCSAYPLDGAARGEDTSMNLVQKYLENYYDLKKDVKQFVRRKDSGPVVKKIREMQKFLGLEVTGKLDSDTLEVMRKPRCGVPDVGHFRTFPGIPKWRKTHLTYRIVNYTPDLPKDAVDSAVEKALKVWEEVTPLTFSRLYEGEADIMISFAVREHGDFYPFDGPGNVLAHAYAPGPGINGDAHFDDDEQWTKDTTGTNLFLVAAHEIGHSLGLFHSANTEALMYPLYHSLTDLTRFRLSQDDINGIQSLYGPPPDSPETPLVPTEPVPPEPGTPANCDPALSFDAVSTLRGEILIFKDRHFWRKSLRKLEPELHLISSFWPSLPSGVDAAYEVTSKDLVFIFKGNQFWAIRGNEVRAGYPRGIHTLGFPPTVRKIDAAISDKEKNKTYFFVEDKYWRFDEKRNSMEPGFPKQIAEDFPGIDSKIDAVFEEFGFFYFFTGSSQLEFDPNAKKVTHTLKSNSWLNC

The term IC50 denotes the midpoint of a concentration-inhibition curve. `Cc1cc(=O)c(O)c(C(=O)NCc2ccc(-c3ccc(-c4ccccc4)cc3)cc2)o1`: the IC50 against Neutrophil collagenase [1] was greater than 2 µM; in [2], greater than 2 µM; in assay [3] it was greater than 2 µM; on Interstitial collagenase [4] it was greater than 50 µM.

Consider `CC(C)CC(C(=O)NC(c1noc(Sc2ccccc2)n1)C(C)(C)C)C(O)C(=O)NO` (centres undefined), for which the IC50 in assay [5] was 0.02 µM.

`O=C(NO)C1c2ccc(O)cc2CCN1S(=O)(=O)c1cc(Cl)ccc1Cl` (centres undefined) had an IC50 at Interstitial collagenase [6] of 50 µM.

In the case of `CC(C)CNC(=O)P(=O)(O)O`, the figures for the IC50 (on Interstitial collagenase [7]; in [8]; at Neutrophil collagenase [9]) were 40 µM, greater than 100 µM and 1 µM, respectively.

In general, Ki refers to a measure of affinity in units of concentration, obtained from inhibition or displacement. A lower Ki goes with a stronger hold on the target. On to `NC(=O)[C@@H](CCC(=O)O)NC(=O)[C@@H](CCC(=O)O)NC(=O)[C@@H](Cc1cc(-c2ccc(-c3cccc(Cl)c3)cc2)no1)CP(=O)(O)c1ccc(Br)cc1`, for which the Ki on Interstitial collagenase [10] worked out at 67 µM; in [11] it was 1.27 µM; in assay [12] it was 0.14 µM; on Neutrophil collagenase [13] it was 0.271 µM; on Collagenase 3, 0.049 µM; on Matrilysin, 0.626 µM. Further, the Ki turned out to be 18.4 µM at Stromelysin-2, 0.04 µM on Stromelysin-1, 0.00019 µM in [14] and 0.192 µM in assay [15].

The values above are taken from ChEMBL document CHEMBL5113513, “Selective Inhibitors of Medium-Size S1' Pocket Matrix Metalloproteinases: A Stepping Stone of Future Drug Discovery” (J Med Chem, 2022).
